The text below walks through data of patent US20260207585A1, “METHODS AND COMPOSITIONS FOR THE TREATMENT OF PARKINSON'S DISEASE, HUNTINGTON'S DISEASE, AMYOTROPHIC LATERAL SCLEROSIS, AND LEARNING DISORDERS” (Cedars-Sinai Medical Center, priority 2022, published 2026).

Structures are written as SMILES. Where two headings read alike, the source gives them in different places.

One test concerns AD+ mice. Description: Fear conditioning test. Format: in vivo. How it is done: The effects of single and repeated ETP69 injections in mice were tested. The experimental timeline is depicted in FIG. 5. Three parallel injection conditions were tested: a single ETP69 condition, a boosted ETP69 injection, and repeated ETP69 injections. The single injection mice received one injection of ETP69 or DMSO at Day 0. The mice that received a boosted injection received one injection of ETP69 or DMSO at day 0 and one injection at day 9. The mice that received repeated injections received 11 injections of ETP69 or DMSO at day 0 or day 9. Both wildtype and AD model (APP/PS1-transgenic) mice were tested.
The results of the Open Field Barnes Maze test indicate hippocampal-based spatial memory. FIG. 7A depicts a schematic of the Barnes Maze Test. […] The results of the fear conditioning test indicate spatial memory.

For test [1], the system named is soluble fraction of brain homogenates. As to the kind of experiment: Mass spectrometry proteomics of brain homogenates with IPA. Format: in vivo, mice. How it is done: The results included levodopa (L-dopa), a naturally occurring product that is also a drug for the management of Parkinson's motor symptoms.
Mass spectrometry (MS) analysis on the soluble fraction of brain homogenates extracted from the […] WT and neurodegenerative (AD) mice cohort was performed (DMSO-treated WT mice: n=8; ETP69-treated WT mice: n=7; DMSO-treated AD^+ mice: n=6; ETP69-treated AD^+ n=6).
The effects of ETP69 on the molecular pathways related to neuroprotection and cognitive function was assessed.

The next test deals with dendritic spines. As to the kind of experiment: Golgi-Cox staining of brain, dendritic spine quantification. Format: in vivo, mice. An excerpt: The brain of 18-month old mice was stained with the Golgi-Cox method to detect the cytoarchitecture and morphology of neurons. FIG. 1A depicts representative images of the cingulate cortex (cc) of mice administered DMSO or ETP69. FIG. 1B depicts a representative hippocampus. FIG. 1C depicts a representative neuron from a DMSO treated and ETP69 treated hippocampus. FIG. 1D is a schematic of the quantification of neuronal spines.
The brains were stained with the Golgi-Cox method to detect the cytoarchitecture and morphology of neurons. Representative images are shown of mice treated with DMSO (FIG. 10A-10C) and ETP69 (FIG. 10D-10F). The number of dendritic spines are quantified. […] Further, ETP69 administration reduced epigenetic H3K9me3 repression mark in cell-specific manners. H3K9 expression was reduced in neurons (FIGS. 11A-11B), astrocytes (FIGS. 11C-11D), and microglia macrophages (FIGS. 11E-11F).
Loss of synapses and dendritic spine abnormalities are associated with cognitive decline. To analyze these features in old mice administered ETP69, Golgi-Cox neuronal staining and synaptic marker staining was performed in cerebral cortices and hippocampi. Dendritic spines were classified as thin (filopodia-like and long-thin), stubby, or mushroom spines according to their size and shape, and quantified the spine density from high-magnification photographs.

A further test concerns the target T1, G9a (Homo sapiens, UniProt Q96KQ7).
T1 sequence (Q96KQ7 1-1210): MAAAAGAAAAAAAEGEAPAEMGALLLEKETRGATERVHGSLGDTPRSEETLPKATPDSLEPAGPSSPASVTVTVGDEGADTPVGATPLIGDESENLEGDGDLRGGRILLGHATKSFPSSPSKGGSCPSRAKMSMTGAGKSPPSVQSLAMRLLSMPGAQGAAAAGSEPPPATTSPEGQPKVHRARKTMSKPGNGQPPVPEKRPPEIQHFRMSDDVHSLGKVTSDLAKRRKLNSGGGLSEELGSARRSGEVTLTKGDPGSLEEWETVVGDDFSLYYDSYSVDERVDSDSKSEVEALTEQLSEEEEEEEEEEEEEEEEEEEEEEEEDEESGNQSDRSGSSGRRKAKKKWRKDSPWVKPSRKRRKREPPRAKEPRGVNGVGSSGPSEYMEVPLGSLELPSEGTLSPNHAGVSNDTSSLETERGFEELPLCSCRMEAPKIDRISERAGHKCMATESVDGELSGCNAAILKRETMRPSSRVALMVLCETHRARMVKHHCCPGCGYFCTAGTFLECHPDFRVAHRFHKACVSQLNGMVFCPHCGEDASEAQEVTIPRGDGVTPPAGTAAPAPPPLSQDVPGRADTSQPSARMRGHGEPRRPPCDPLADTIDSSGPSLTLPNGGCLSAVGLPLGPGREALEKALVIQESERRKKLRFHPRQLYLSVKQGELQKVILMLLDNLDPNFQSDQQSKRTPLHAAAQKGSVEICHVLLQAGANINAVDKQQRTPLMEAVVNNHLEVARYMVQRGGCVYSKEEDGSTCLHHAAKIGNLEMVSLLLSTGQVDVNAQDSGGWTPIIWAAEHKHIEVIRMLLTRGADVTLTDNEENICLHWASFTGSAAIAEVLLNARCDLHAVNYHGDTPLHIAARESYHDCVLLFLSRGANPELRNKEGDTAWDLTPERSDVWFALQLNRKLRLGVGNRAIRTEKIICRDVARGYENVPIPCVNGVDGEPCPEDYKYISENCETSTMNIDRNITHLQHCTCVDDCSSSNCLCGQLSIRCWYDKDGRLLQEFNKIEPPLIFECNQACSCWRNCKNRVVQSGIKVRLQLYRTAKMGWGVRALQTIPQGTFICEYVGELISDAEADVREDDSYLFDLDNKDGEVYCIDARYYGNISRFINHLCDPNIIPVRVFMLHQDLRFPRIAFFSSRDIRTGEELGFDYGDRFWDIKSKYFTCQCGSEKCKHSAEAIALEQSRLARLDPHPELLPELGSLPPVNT
As to the kind of experiment: Methyltransferase inhibition panel: G9a. The format is biochemical. How it is done:
The ability of ETP69 to inhibit methyltransferases was tested.

Where [2] appears, read: 18-month old mice, cingulate cortex (cc) and hippocampus, vs DMSO.
The mark [3] stands for this setting: old (18-month-old) mice, 10 mg/kg i.p.

As for `CN1C(=O)[C@@]23C[C@](C)(C#N)[C@H](c4ccc5c(c4)OCO5)N2C(=O)[C@]1(C)SS3` (racemic) [ETP69, Rac-(3S,6S,7S,8aS)-6-(benzo[d][1,3]dioxol-5-yl)-2,3,7-trimethyl-1,4-dioxohexahydro-6H-3,8a-epidithiopyrrolo[1,2-a]pyrazine-7-carbonitrile], the freezing time result in the test with AD+ mice was “increased”. The “pathways of learning, cognition, quantity of neurons, dendritic growth and branching (IPA)” value in test [1] (AD+ mice) was “significantly activated”. In addition, the Mapt protein upregulation in test [1] (AD+ mice, p=0.0188) came out at 2.4 fold. Besides, the Gfra2 protein result in test [1] (ETP69-treated mice, p=0.0056) is listed as “significantly increased”. In addition, the Lrrn4 protein upregulation in test [1] (ETP69-treated versus DMSO-control AD+ mice, p=0.015) is 1.73 fold. In addition, the “brain neurotrophic factors (NTFs) expression including BDNF, VGF and levodopa” value in test [1] (proteome signatures) is reported as “induced”. Besides, in the test on dendritic spines (setting [2]), the dendritic spines result is “increase” and the thin spines entry is “increase”. Besides, the “number of dendritic spines” value with dendritic spines (Example 4 mice, cingulate cortex and hippocampus, vs DMSO) was “significantly increased”. Moreover, in the test with dendritic spines (setting [3]), the mushroom-to-total spine ratio entry was “lower” and the thin-to-total spine ratio result is reported as “higher”. Besides, the “increase in the number of dendritic spines” value in the test on dendritic spines (old (18-month-old) wildtype and neurodegenerative mice, hippocampus and cerebral cortex, 10 mg/kg i.p., vs DMSO control) was found to be 1.2 fold. Moreover, the remaining activity at 2.5 µM on G9a (read-out: Enzyme % Activity (relative to DMSO controls) Data 1) is 40.9%. Also, on G9a (read-out: Enzyme % Activity (relative to DMSO controls) Data 2), the remaining activity at 2.5 µM is 38.7%. Also, the “inhibition relative to DMSO controls” value against G9a (summary of Table 1) is “at least 7500”.
